Source: patent US10683311B2 (priority 2015, dated 2020)

Assay: log P by HPLC on reversed-phase column (C18), EEC Directive 79/831 Annex V.A8
Type: physicochemical
Details: for chromatographic logP: reversed-phase HPLC column (C18)
Description: In table 1, the log P values were determined in accordance with EEC Directive 79/831 Annex V.A8 by HPLC (High Performance Liquid Chromatography) on a reversed-phase column (C18), using the methods described below:
Method A: temperature: 40° C.; mobile phases: 0.1% aqueous formic acid and acetonitrile; linear gradient from 10% acetonitrile to 95% acetonitrile;
Method B: temperature: 40° C.; mobile phases: 0.001 molar ammonium acetate solution in water and acetonitrile; linear gradient from 10% acetonitrile to 95% acetonitrile.
Calibration was carried out using unbranched alkan-2-ones (comprising 3 to 16 carbon atoms) with known log P values (determination of the log P values by the retention times using linear interpolation between two successive alkanones). lambda-max-values were determined using UV-spectra from 200 nm to 400 nm and the peak values of the chromatographic signals.

[1] = Method A: 40° C., 0.1% aqueous formic acid and acetonitrile

Compound | logP [1] | further results
C[SiH](c1ccccc1)c1c(Oc2cccc(F)c2)c(Cl)nc2ccccc12 (stereo not drawn) [2-chloro-3-(3-fluorophenoxy)-4-[methyl(phenyl)silyl]quinoline] | – | chromatographic logP [1]: 5.9
C[Si]1(c2ccccc2)c2c(F)cccc2Oc2c(Cl)nc3ccccc3c21 (stereo not drawn) [6-chloro-11-fluoro-12-methyl-12-phenyl-12H-[1,4]benz-oxasilino[2,3-c]quinoline] | 5.94 | –
C[Si](C)(O)c1ccccc1Oc1cnc2ccccc2c1 [I.002] | 2.82 | –
C[Si](C)(O)c1c(F)cccc1Oc1cnc2ccccc2c1 [I.003] | 2.90 | –
CC[Si](C)(C)c1c(F)cccc1Oc1cnc2ccccc2c1 [I.005] | 5.47 | –
C=C[Si](C)(C)c1c(F)cccc1Oc1cnc2ccccc2c1 [I.006] | 5.24 | –
C[Si](C)(CCl)c1c(F)cccc1Oc1cnc2ccccc2c1 [I.007] | 5.00 | –
C[Si](C)(O)c1ccccc1Nc1cnc2ccccc2c1 [I.009] | – | logP (Method B: 40° C., 0.001 molar ammonium acetate solution in water and acetonitrile): 3.20
C[Si](C)(C)c1ccccc1Nc1cnc2ccccc2c1 [I.011] | 3.46 | –
C[Si](C)(C)c1ccccc1Cc1cnc2ccccc2c1 [I.012] | 4.06 | –
C[Si](C)(c1ccccc1)c1ccccc1Cc1cnc2ccccc2c1 [I.013] | 4.20 | –
C[Si](C)(c1ccc(Cl)cc1)c1ccccc1Cc1cnc2ccccc2c1 [I.014, 3-{2-[(4-chlorophenyl)(dimethyl)silyl]benzyl}quinoline] | – | chromatographic logP [1]: 4.74
C[Si](C)(c1cccs1)c1ccccc1Cc1cnc2ccccc2c1 [I.015] | 4.04 | –
C[Si](C)(c1ccc(Oc2ccccc2)cc1)c1ccccc1Cc1cnc2ccccc2c1 [I.016] | 5.62 | –
C[Si](C)(C)c1c(F)cccc1C(=O)c1cnc2ccccc2c1 [I.017] | 4.49 | –
C[Si](C)(O)c1cc(F)ccc1Oc1cnc2c(Cl)cccc2c1 [I.018] | 3.50 | –
C[Si](C)(C)c1ccccc1Oc1cnc2c(F)c(F)ccc2c1 [I.020] | 5.39 | –
C[Si](C)(C)c1c(F)cccc1Oc1cnc2c(F)c(F)ccc2c1 [I.021] | 5.32 | –
C[Si](C)(O)c1c(F)cccc1Oc1cnc2c(F)c(F)ccc2c1 [I.022] | 2.35 | –
C[Si](C)(O)c1ccccc1Oc1cnc2c(F)c(F)ccc2c1 [I.023] | 3.27 | –
Cc1nc2c(F)c(F)ccc2cc1Oc1cccc(F)c1[Si](C)(C)O [I.025] | 3.55 | –
Cc1nc2c(F)c(F)ccc2cc1Oc1cccc(F)c1[Si](C)(C)c1ccccc1 [I.028] | 6.01 | –
Cc1nc2c(F)c(F)ccc2cc1Oc1cc(N)ccc1[Si](C)(C)C [I.029] | 4.59 | –

Compound | logP [1] | further results
Cc1nc2c(F)c(F)ccc2cc1Oc1cccc(F)c1[Si](C)(C)c1cccs1 [I.030] | 5.65 | –
Cc1nc2c(F)c(F)ccc2cc1Oc1cc([N+](=O)[O-])ccc1[Si](C)(C)C [I.031] | 5.34 | –
COc1cccc(Oc2cc3ccc(F)c(F)c3nc2C)c1[Si](C)(C)O [I.033] | 3.69 | –
Cc1nc2c(F)c(F)ccc2cc1Oc1cccc(Cl)c1[Si](C)(C)O [I.034] | 3.83 | –
Cc1nc2c(F)c(F)ccc2cc1Oc1cc(F)ccc1[Si](C)(C)O [I.035] | 3.55 | –
Cc1nc2c(F)c(F)ccc2cc1Oc1cccc(OC(F)(F)F)c1[Si](C)(C)O [I.036] | 4.20 | –
Cc1nc2c(F)c(F)ccc2cc1Oc1ccc(F)cc1[Si](C)(C)O [I.037] | 3.55 | –
COc1cccc(Oc2cc3ccc(F)c(F)c3nc2C)c1[Si](C)(C)C [I.038] | 5.85 | –
CC[Si](C)(C)c1c(C#N)cccc1Oc1cc2ccc(F)c(F)c2nc1C [I.039] | 5.22 | –
Cc1nc2c(F)c(F)ccc2cc1Cc1ccccc1[Si](C)(C)C [I.040] | 5.54 | –
CC[Si](C)(C)c1ccccc1Oc1cnc2c(c1)CCCC2 [I.041] | 3.68 | –
Cc1c(Oc2cccc(F)c2[Si](C)(C)C)cnc2ccccc12 [I.042] | 5.62 | –
CC[Si](C)(C)c1c(C#N)cccc1Oc1c(C)nc2c(F)c(F)ccc2c1[Si](C)(C)CC [I.043] | 7.36 | –
C=Cc1nc2ccccc2cc1Oc1cccc(F)c1[Si](C)(C)C [I.044] | 6.30 | –
C[Si](C)(C)c1c(F)cccc1Oc1cc2ccccc2nc1-c1ccccc1 [I.045] | 6.40 | –
Cc1nc2ccccc2cc1Oc1cccc(F)c1[Si](C)(C)C [I.046] | 5.08 | –
Cc1nc2ccccc2cc1Oc1ccccc1[Si](C)(C)O [I.048] | 2.16 | –
Cc1nc2ccccc2cc1Oc1cccc(F)c1[Si](C)(C)O [I.049] | 2.41 | –
Cc1nc2ccccc2cc1Oc1cccc(OC(F)(F)F)c1[Si](C)(C)O [I.050] | 3.35 | –
Cc1nc2ccccc2cc1Oc1cccc(Cl)c1[Si](C)(C)O [I.051] | 2.80 | –
CC[Si](C)(C)c1c(F)cccc1Oc1cc2ccccc2nc1C [I.052] | 5.62 | –
Cc1nc2ccccc2cc1Oc1cccc(F)c1[SiH](C)C [I.053] | 4.56 | –
Cc1nc2ccccc2cc1Nc1ccccc1[Si](C)(C)C [I.054] | 2.46 | –

Compound | logP [1] | further results
Cc1nc2ccccc2cc1Nc1ccc(F)cc1[Si](C)(C)C [I.055] | 2.63 | –
CCN(c1ccccc1[Si](C)(C)C)c1cc2ccccc2nc1C [I.056] | 3.16 | –
CC[Si](C)(C)c1c(F)cccc1Oc1cc2ccccc2[n+]([O-])c1C [I.057] | 4.54 | –
Cc1c(Nc2ccccc2[Si](C)(C)C)cc2ccccc2[n+]1[O-] [I.058] | 3.62 | –
C[Si](C)(C)c1c(F)cccc1Oc1cc2ccccc2nc1O [I.059] | 3.85 | –
CCOc1nc2ccccc2cc1Oc1cccc(F)c1[Si](C)(C)C [I.060] | 6.79 | –
C[Si](C)(C)c1c(F)cccc1Oc1cc2ccccc2nc1C1CC1 [I.061] | 6.90 | –
C[Si](C)(C)c1c(F)cccc1Oc1cc2ccccc2nc1Cl [I.063] | 5.90 | –
CSc1nc2ccccc2cc1Oc1cccc(F)c1[Si](C)(C)C [I.064] | 6.79 | –
C[Si](C)(C)c1c(F)cccc1Oc1cc2ccccc2nc1C(F)F [I.065] | 5.45 | –
C[Si](C)(C)c1c(F)cccc1Nc1cc2ccccc2nc1C(F)F [I.066] | 5.68 | –
C[Si](C)(C)c1c(F)cccc1Oc1cc2ccccc2nc1-c1ccsc1 [I.067] | 6.66 | –
C[Si](C)(C)c1ccccc1Oc1cnc2ccccc2n1 [I.068] | 5.05 | –
C[Si](C)(C)c1c(F)cccc1Oc1cnc2ccccc2n1 [I.069] | 5.22 | –
C[Si](C)(O)c1ccccc1Oc1cnc2ccccc2n1 [I.070] | 2.86 | –
C[Si](C)(O)c1c(F)cccc1Oc1cnc2ccccc2n1 [I.071] | 3.01 | –
CC(C)(C)[Si](C)(C)c1ccccc1Oc1cnc2ccccc2n1 [I.072] | 6.30 | –
CC(C)C[Si](C)(C)c1ccccc1Oc1cnc2ccccc2n1 [I.073] | 6.33 | –
CC[Si](CC)(CC)c1ccccc1Oc1cnc2ccccc2n1 [I.074] | 6.43 | –
CC(C)[Si](C)(C)c1ccccc1Oc1cnc2ccccc2n1 [I.075] | 5.91 | –
CC[Si](C)(C)c1ccccc1Oc1cnc2ccccc2n1 [I.076] | 5.48 | –
CC[Si](C)(C)c1ccccc1Oc1cnc2c(F)c(F)ccc2n1 [I.077] | 5.62 | –
C[Si](C)(C)c1c(F)cccc1Oc1cnc2c(F)c(F)ccc2n1 [I.078] | 5.20 | –

Compound | logP [1] | further results
C[Si](C)(C)c1ccccc1Oc1cnc2c(F)c(F)ccc2n1 [I.079] | 5.28 | –
C[Si](C)(c1ccccc1Oc1cnc2c(F)c(F)ccc2n1)C1CCCCC1 [I.080] | 6.94 | –
C[Si](C)(O)c1ccccc1Oc1cnc2c(F)c(F)ccc2n1 [I.081] | 3.23 | –
C[Si](C)(O)c1c(F)cccc1Oc1cnc2c(F)c(F)ccc2n1 [I.082] | 3.33 | –
C[Si](C)(F)c1c(F)cccc1Oc1cnc2c(F)c(F)ccc2n1 [I.083] | 5.01 | –
C[Si](C)(C)c1ccccc1Nc1cnc2c(F)c(F)ccc2n1 [I.084] | 4.49 | –
Cc1nc2c(F)c(F)ccc2nc1Oc1cccc(F)c1[Si](C)(C)O [I.085] | 3.67 | –
Cc1nc2c(F)c(F)ccc2nc1Oc1ccccc1[Si](C)(C)C [I.086] | 5.46 | –
Cc1nc2c(F)c(F)ccc2nc1Oc1ccccc1[Si](C)(C)O [I.087] | 3.35 | –
Cc1nc2c(F)c(F)ccc2nc1Oc1cccc(F)c1[Si](C)(C)C [I.088] | 5.65 | –
Cc1nc2c(F)c(F)ccc2nc1Oc1c(F)cccc1[Si](C)(C)O [I.089] | 3.62 | –
Cc1nc2c(F)c(F)ccc2nc1Oc1cccc(Cl)c1[Si](C)(C)O [I.090] | 3.94 | –
C=C[Si](C)(C)c1c(F)cccc1Oc1nc2ccc(F)c(F)c2nc1C [I.091] | 5.62 | –
Cc1nc2c(F)c(F)ccc2nc1Oc1cccc(F)c1[Si](C)(C)F [I.092] | 4.75 | –
Cc1nc2c(F)c(F)ccc2nc1Oc1cc(C#N)ccc1[Si](C)(C)O [I.093] | 3.39 | –
COc1cccc(Oc2nc3ccc(F)c(F)c3nc2C)c1[Si](C)(C)O [I.094] | 3.60 | –
Cc1nc2c(F)c(F)ccc2nc1Oc1cccc(OC(F)(F)F)c1[Si](C)(C)O [I.095] | 4.34 | –
Cc1ccc([Si](C)(C)O)c(Oc2nc3ccc(F)c(F)c3nc2C)c1 [I.096] | 3.76 | –
Cc1ccc([Si](C)(C)O)c(Oc2nc3ccc(F)c(F)c3nc2C)c1 [I.097] | 3.76 | –
Cc1nc2c(F)c(F)ccc2nc1Oc1ccc(F)cc1[Si](C)(C)O [I.098] | 3.63 | –
Cc1ccc(Oc2nc3ccc(F)c(F)c3nc2C)c([Si](C)(C)O)c1 [I.099] | 3.85 | –
